Laboratory results taken from patent US9611281B2, “BODIPY derivatives and methods of synthesis and use thereof” (The Board of Regents of the University of Oklahoma, priority 2013, dated 2017).

Experiments:
[1] = Optical properties (absorption, emission, extinction coefficient) of BDP635 and derivative SBDPiRs; assay type: physicochemical
nude mice = experiment: In vivo optical imaging with Compound 53; set-up: species or system mouse; conditions: for in vivo fluorescence image: 2.5 μmol/kg i.p.
Method: Optical imaging was performed with an IVIS Spectrum small-animal in vivo imaging system (Caliper LS). The Living Image Software v3.0 (Caliper LS) was used to analyze images and measurements of fluorescent signals. Excitation and emission wavelengths of 720 nm and 760 nm, respectively, were used to acquire in vivo fluorescent images of Compound 53 (M.W=[…]). All images were attained using a 1-s exposure time and an f/stop of 1, with a sampling of multiple angles with animal under Isoflurane anaesthesia. Animals were injected with 2.5 μmol/kg (2 mg/kg) of 53 via i.p. administration.

[2] = Singlet oxygen generation, indirect method of DPBF photooxidation; conditions: DPBF photooxidation monitored at 410 nm
Method: (§1) Singlet oxygen generation and photostability: A singlet oxygen generation experiment on compound 53 using the indirect method of DPBF photooxidation was performed. There were strong similarities of the behavior of 53 towards DPBF with SBDPiR715. […] The photooxidation of DPBF was monitored by UV-vis spectrophotometer at 410 nm. […] Additionally, less than 30% of 53 photobleached under the harsh light illumination condition over a period of an hour, which is a strong evidence for photostability (FIG. 21).

[3] = Photostability (photobleaching under light illumination); assay type: physicochemical
Method: as §1

[4] = test system: BALB/c mice bearing colon-26 cells (mouse colon carcinoma cells); experiment: In vivo imaging with SBDPiR790; conditions: 2.5 μmol/kg i.p.
Method: Female Balb/c mice were purchased from NCI (Federick, Md.). Mice were housed and handled in the College of Pharmacy animal facility, University of Oklahoma Health Sciences Center, Oklahoma City, Okla. All animal experiments were approved by IACUC, University of Oklahoma Health Sciences Center (personal approval was offered). Injection solution of SBDPiR790 was prepared by solubilizing it in DMSO (4 mM), and then it was diluted with 1% Tween 80-5% dextrose solution (PBS). The solution was filtered through a 0.2 μm sterile syringe filter before i.p. injection.
BALB/c mice bearing colon-26 cells (mouse colon carcinoma cells) were used for this study. 6-8 week old Balb/c mice were shaved and depilated with hair removal cream (Nair) at the upper back. The mice were subcutaneously inoculated with colon 26 cells at the neck region with […] in 0.1 ml PBS solution. Tumors with 4-6 mm diameter size were made in a week. The in vivo Xtreme imaging system (Carestream Health, Inc.) was used in acquiring images as mice were kept under safe anaesthesia using Isoflurane. The instrumental conditions for the imaging were as follows: fluorescence mode with excitation 760 nm and emission 830 nm; exposure time 5 sec; F/stop: 2 and pixel 2×2. Images collected were then processed using the Carestream MI imaging software to equally adjusted minima and maxima scale.
All mice received 2.5 μmol/kg of SBDPiR790 (MW=636.11 g/mol) solution in PBS (0.2 ml) via i.p. injection. Images were taken at 0 (before), 15 minutes, 3, 6, and 24 hours postinjection. […] Particularly SBDPiR790 can be a practical alternative to the sole clinically approved NIR probe, ICG. The stability, and excellent photophysical properties of SBDPiR790 and its lipophilic character make it useful for varied applications including cancer diagnosis and neurological imaging taking advantage of its ability to cross the blood-brain barrier.

Compound	λabs [1] [nm]	λflu [1] [nm]	ε [1]	other results
COC(=O)c1ccc(C2=C3C=c4sc(-c5ccc(OC)cc5)cc4=[N+]3[B-](F)(F)n3c2cc2sc(-c4ccc(OC)cc4)cc23)cc1 [Compound 50, 2,8-Di(4-Methoxy-phenyl)-11-benzoic acid methyl ester-dithieno[2,3-b]-[3,2-g]-5,5-difluoro-5-bora-3a,4a-diaza-s-indacene]				fluorescence [1]: relatively low fluorescence; 0-0 absorption ([1]; in CHCl3): 685 nm; molar extinction coefficient ([1]; in CHCl3): 85 000 M^−1 cm^−1
O=C(O)COc1ccc(-c2sc3c(c2Br)=[N+]2C(=C(C(F)(F)F)c4cc5sc(-c6ccc(OCC(=O)O)cc6)c(Br)c5n4[B-]2(F)F)C=3)cc1 [Compound 53, 3,7-Dibromo-2,8-di(4-Carboxymethoxy-phenyl)-11-trifluoromethyl-dithieno[2,3-b]-[3,2-g]-5,5-difluoro-5-bora-3a,4a-diaza-s-indacene]				in vivo fluorescence signal (nude mice; 2.5 μmol/kg (2 mg/kg) i.p., ex 720 nm / em 760 nm): Bright fluorescence signals were detected; in vivo fluorescence image (nude mice; 5 and 10 minutes): two bright areas were observed in the mid-body; in vivo fluorescence image (nude mice; 3 hours and 6 hours): most skin showed bright emission; in vivo fluorescence image (nude mice; 12 hours): the intensity of skin was lower than the 3 hour and 6 hour images; singlet oxygen generation [2]: potent singlet oxygen generator; photostability compared with m-THPC [3]: relatively better than the clinically approved m-THPC (Foscan); fraction photobleached ([3]; harsh light illumination over a period of an hour): less than 30%
F[B-]1(F)n2c(cc3sc(Oc4ccc(-c5ccccc5)cc4)cc32)C(C(F)(F)F)=C2C=c3sc(Oc4ccc(-c5ccccc5)cc4)cc3=[N+]21 [SBDPiR650, 2,8-Di(biphenyl-4-yloxy)-11-trifluoromethyl-dithieno[2,3-b]-[3,2-g]-5,5-difluoro-5-bora-3a,4a-diaza-s-indacene]	649	660	83 000 M^−1 cm^−1	
COc1ccc(Oc2cc3c(s2)=CC2=C(C(F)(F)F)c4cc5sc(Oc6ccc(OC)cc6)cc5n4[B-](F)(F)[N+]=32)cc1 [SBDPiR650_OMe, 2,8-Di(4-methoxyphenoxy)-11-trifluoromethyl-dithieno[2,3-b]-[3,2-g]-5,5-difluoro-5-bora-3a,4a-diaza-s-indacene]	649	660	118 000 M^−1 cm^−1	
F[B-]1(F)n2c(cc3sc(-c4cccs4)cc32)C(C(F)(F)F)=C2C=c3sc(-c4cccs4)cc3=[N+]21 [SBDPiR735, 2,8-Di(thiophenyl)-11-trifluoromethyl-dithieno[2,3-b]-[3,2-g]-5,5-difluoro-5-bora-3a,4a-diaza-s-indacene]	733	763	125 000 M^−1 cm^−1	
Oc1ccc(-c2cc3c(s2)=CC2=C(C(F)(F)F)c4cc5sc(-c6ccc(O)cc6)cc5n4[B-](F)(F)[N+]=32)cc1 [SBDPiR740, 2,8-Di(4-hydroxyphenyl)-11-trifluoromethyl-dithieno[2,3-b]-[3,2-g]-5,5-difluoro-5-bora-3a,4a-diaza-s-indacene]	738	763	101 000 M^−1 cm^−1	
F[B-]1(F)n2c(cc3sc(C=Cc4ccccc4)cc32)C(C(F)(F)F)=C2C=c3sc(C=Cc4ccccc4)cc3=[N+]21 [SBDPiR755, 2,8-Di(styryl)-11-trifluoromethyl-dithieno[2,3-b]-[3,2-g]-5,5-difluoro-5-bora-3a,4a-diaza-s-indacene]	753	785	110 000 M^−1 cm^−1	
COc1ccc(C=Cc2cc3c(s2)=CC2=C(C(F)(F)F)c4cc5sc(C=Cc6ccc(OC)cc6)cc5n4[B-](F)(F)[N+]=32)cc1 [SBDPiR790, 2,8-Di(4-(methoxy-phenyl)vinyl)-11-trifluoromethyl-dithieno[2,3-b]-[3,2-g]-5,5-difluoro-5-bora-3a,4a-diaza-s-indacene]	786		85 000 M^−1 cm^−1	in vivo fluorescence emission image ([4]; 15 minutes postinjection, ex 760 nm / em 830 nm): most of the dye still remained in the peritoneal cavity; in vivo fluorescence emission image ([4]; 3 hours postinjection): all skin area showed relatively bright emission with intense bright spots in mid-body; in vivo fluorescence emission image ([4]; 6 hours postinjection): an intense emission was observed in the tumor area; in vivo fluorescence emission image ([4]; 24 hours postinjection): brighter emission was observed at the tumor site than other body

Second part, led by results:

λabs [1] [nm]	λflu [1] [nm]	ε [1]	Compound	other results
635	650		2,8-Di(bromo)-11-trifluoromethyl-dithieno[2,3-b]-[3,2-g]-5,5-difluoro-5-bora-3a,4a-dithio-s-indacene [BDP635]	
694	715	105 000 M^−1 cm^−1	F[B-]1(F)n2c(cc3sc(Sc4ccccc4)cc32)C(C(F)(F)F)=C2C=c3sc(Sc4ccccc4)cc3=[N+]21 [SBDPiR700, 2,8-Di(thiophenoxy)-11-trifluoromethyl-dithieno[2,3-b]-[3,2-g]-5,5-difluoro-5-bora-3a,4a-diaza-s-indacene]	
728	761	140 000 M^−1 cm^−1	COc1cc(-c2cc3c(s2)=CC2=C(C(F)(F)F)c4cc5sc(-c6cc(OC)c(OC)c(OC)c6)cc5n4[B-](F)(F)[N+]=32)cc(OC)c1OC [SBDPiR730, 2,8-Di(3,4,5-trimethoxyphenyl)-11-trifluoromethyl-dithieno[2,3-b]-[3,2-g]-5,5-difluoro-5-bora-3a,4a-diaza-s-indacene]	
731	755	185 000 M^−1 cm^−1	COc1ccc(-c2cc3c(s2)=CC2=C(C(F)(F)F)c4cc5sc(-c6ccc(OC)cc6)cc5n4[B-](F)(F)[N+]=32)cc1 [SBDPiR731, 2,8-Di(4-methoxyphenyl)-11-trifluoromethyl-dithieno[2,3-b]-[3,2-g]-5,5-difluoro-5-bora-3a,4a-diaza-s-indacene]	
841			CN(C)c1ccc(-c2cc3c(s2)=CC2=C(C(F)(F)F)c4cc5sc(-c6ccc(N(C)C)cc6)cc5n4[B-](F)(F)[N+]=32)cc1 [SBDPiR840, 2,8-Di(4-N,N,dimethylaminophenyl)-11-trifluoromethyl-dithieno[2,3-b]-[3,2-g]-5,5-difluoro-5-bora-3a,4a-diaza-s-indacene]	
